Tested on: normal human lung fibroblasts
Test: Ribosomal profiling: translational efficiency in TGFβ-treated fibroblasts
Assay type: cell-based
Conditions: TGFβ-treated fibroblasts
Procedure: Ribosomal profiling allows for measurement of changes in transcription and translation on a genome-wide basis accompanying TGFβ-dependent transformation of fibroblasts to myofibroblasts. Ribosomal profiles of the TGFβ-treated fibroblasts from Example 1 (about 6×10^6 cells/10 cm plate) were prepared and analyzed for changes in translational efficiencies with respect to potential disease-associated cellular changes accompanying this TGFβ-induced transformation.
Briefly, cells were washed with cold PBS supplemented with cycloheximide and lysed with 1× mammalian cell lysis buffer for 10 minutes on ice. Lysates were clarified by centrifugation for 10 minutes at 14,000 rpm and supernatants were collected. Cell lysates were processed to generate ribosomal protected fragments and total mRNA according to the instructions included with the ARTseq Ribosome Profiling Kit (Illumina, San Diego, Calif.). Sequencing of total RNA (RNA) and of ribosome-protected fragments of RNA (RPF) was carried out using RNA-Seq methodology according to the manufacturer's instructions (Illumina). To analyze the ribosomal profiles, RNA-Seq reads were processed with tools from the FASTX-Toolkit (fastq_quality_trimmer, fastx_clipper and fastx_trimmer). Unprocessed and processed reads were evaluated for a variety of quality measures using FastQC, and processed reads were mapped to the human genome using TopHat (see, e.g., Trapnell et al., Bioinformatics 25:1105, 2009). Gene-by-gene assessment of the number of fragments strictly and uniquely mapping to the coding region of each gene was conducted using HTSeq-count, a component of the HTSeq package. […] Genes with low counts in either RPF or RNA were excluded from differential analyses. Pathway and network analyses of differential data were conducted using Ingenuity Pathway Analysis (IPA).

For COC(=O)[C@H]1[C@@H](O)[C@@]2(O)c3c(OC)cc(O[C@@H]4O[C@@H]([C@H](O)CO)CO[C@H]4OC)cc3O[C@@]2(c2ccc(OC)cc2)[C@@H]1c1ccccc1 [Silvestrol], the “renormalizing the translational profile of LAMP5” value (ENSG00000125869) was “− (− = <0.9)”, the “renormalizing the translational profile of NECAB3” value (ENSG00000125967) was “− (− = <0.9)” and the “renormalizing the translational profile of COX7C” value (ENSG00000127184) was “− (− = <0.9)”. For the same molecule, the “renormalizing the translational profile of LIF” value (ENSG00000128342) was “− (− = <0.9)”, the “renormalizing the translational profile of MTUS1” value (ENSG00000129422) was “− (− = <0.9)” and the “renormalizing the translational profile of ARHGEF6” value (ENSG00000129675) was “− (− = <0.9)”. For the same molecule, the “renormalizing the translational profile of RPL36” value (ENSG00000130255) was “− (− = <0.9)”, the “renormalizing the translational profile of GDF15” value (ENSG00000130513) was “− (− = <0.9)” and the “renormalizing the translational profile of ASS1” value (ENSG00000130707) was “− (− = <0.9)”. For the same molecule, the “renormalizing the translational profile of EIF2S3” value (ENSG00000130741) was “− (− = <0.9)”, the “renormalizing the translational profile of RPL27” value (ENSG00000131469) was “− (− = <0.9)” and the “renormalizing the translational profile of MATN3” value (ENSG00000132031) was “+ (+ = 0.9 to 1.5)”. For the same molecule, the “renormalizing the translational profile of PPARG” value (ENSG00000132170) was “+++ (+++ = >2.0)”, the “renormalizing the translational profile of KDM6B” value (ENSG00000132510) was “+ (+ = 0.9 to 1.5)” and the “renormalizing the translational profile of RARRES3” value (ENSG00000133321) was “− (− = <0.9)”. The “renormalizing the translational profile of BIVM” value (ENSG00000134897) was “− (− = <0.9)”, the “renormalizing the translational profile of ATP5G2” value (ENSG00000135390) was “− (− = <0.9)” and the “renormalizing the translational profile of KRT7” value (ENSG00000135480) was “− (− = <0.9)”. For the same molecule, the “renormalizing the translational profile of HNRNPA1” value (ENSG00000135486) was “− (− = <0.9)”, the “renormalizing the translational profile of IL6” value (ENSG00000136244) was “− (− = <0.9)” and the “renormalizing the translational profile of RPL35” value (ENSG00000136942) was “− (− = <0.9)”. The “renormalizing the translational profile of NOV” value (ENSG00000136999) was “− (− = <0.9)”, the “renormalizing the translational profile of IER3” value (ENSG00000137331) was “− (− = <0.9)” and the “renormalizing the translational profile of DDX60” value (ENSG00000137628) was “+ (+ = 0.9 to 1.5)”. For the same molecule, the “renormalizing the translational profile of RPLP1” value (ENSG00000137818) was “− (− = <0.9)”, the “renormalizing the translational profile of PAQR5” value (ENSG00000137819) was “− (− = <0.9)” and the “renormalizing the translational profile of AOX1” value (ENSG00000138356) was “− (− = <0.9)”. For the same molecule, the “renormalizing the translational profile of FGF5” value (ENSG00000138675) was “− (− = <0.9)”, the “renormalizing the translational profile of PDE5A” value (ENSG00000138735) was “− (− = <0.9)” and the “renormalizing the translational profile of GAS2L3” value (ENSG00000139354) was “+ (+ = 0.9 to 1.5)”. The “renormalizing the translational profile of DIAPH3” value (ENSG00000139734) was “− (− = <0.9)”, the “renormalizing the translational profile of MYO19” value (ENSG00000141140) was “+ (+ = 0.9 to 1.5)” and the “renormalizing the translational profile of RPL13A” value (ENSG00000142541) was “− (− = <0.9)”. The “renormalizing the translational profile of RPL11” value (ENSG00000142676) was “− (− = <0.9)”, the “renormalizing the translational profile of PLEKHA6” value (ENSG00000143850) was “− (− = <0.9)” and the “renormalizing the translational profile of RPL32” value (ENSG00000144713) was “− (− = <0.9)”. The “renormalizing the translational profile of RPL37” value (ENSG00000145592) was “− (− = <0.9)”, the “renormalizing the translational profile of BTF3” value (ENSG00000145741) was “− (− = <0.9)” and the “renormalizing the translational profile of HIGD2A” value (ENSG00000146066) was “− (− = <0.9)”. For the same molecule, the “renormalizing the translational profile of CREB5” value (ENSG00000146592) was “− (− = <0.9)”, the “renormalizing the translational profile of DENND2A” value (ENSG00000146966) was “− (− = <0.9)” and the “renormalizing the translational profile of RPL10” value (ENSG00000147403) was “− (− = <0.9)”. For the same molecule, the “renormalizing the translational profile of EIF3H” value (ENSG00000147677) was “− (− = <0.9)”, the “renormalizing the translational profile of RPL7A” value (ENSG00000148303) was “− (− = <0.9)” and the “renormalizing the translational profile of EIF3M” value (ENSG00000149100) was “− (− = <0.9)”. For the same molecule, the “renormalizing the translational profile of FAU” value (ENSG00000149806) was “− (− = <0.9)”, the “renormalizing the translational profile of CCDC102B” value (ENSG00000150636) was “− (− = <0.9)” and the “renormalizing the translational profile of FRMD4A” value (ENSG00000151474) was “− (− = <0.9)”. For the same molecule, the “renormalizing the translational profile of HOMER1” value (ENSG00000152413) was “+ (+ = 0.9 to 1.5)”, the “renormalizing the translational profile of PLEKHH2” value (ENSG00000152527) was “− (− = <0.9)” and the “renormalizing the translational profile of ANKH” value (ENSG00000154122) was “+ (+ = 0.9 to 1.5)”. For the same molecule, the “renormalizing the translational profile of ABCA6” value (ENSG00000154262) was “++ (++ = 1.5 to 2.0)”, the “renormalizing the translational profile of OBSCN” value (ENSG00000154358) was “− (− = <0.9)” and the “renormalizing the translational profile of ADAMTS5” value (ENSG00000154736) was “+ (+ = 0.9 to 1.5)”. For the same molecule, the “renormalizing the translational profile of OXA1L” value (ENSG00000155463) was “− (− = <0.9)”, the “renormalizing the translational profile of C9orf85” value (ENSG00000155621) was “− (− = <0.9)” and the “renormalizing the translational profile of RPL30” value (ENSG00000156482) was “− (− = <0.9)”. For the same molecule, the “renormalizing the translational profile of EEF1A1” value (ENSG00000156508) was “− (− = <0.9)”, the “renormalizing the translational profile of NRG1” value (ENSG00000157168) was “+ (+ = 0.9 to 1.5)” and the “renormalizing the translational profile of RPL8” value (ENSG00000161016) was “− (− = <0.9)”. The “renormalizing the translational profile of RPL26” value (ENSG00000161970) was “− (− = <0.9)”, the “renormalizing the translational profile of RPL29” value (ENSG00000162244) was “− (− = <0.9)” and the “renormalizing the translational profile of CAMK2N1” value (ENSG00000162545) was “− (− = <0.9)”. For the same molecule, the “renormalizing the translational profile of IGFBP7” value (ENSG00000163453) was “− (− = <0.9)” and the “renormalizing the translational profile of RPL22L1” value (ENSG00000163584) was “− (− = <0.9)”.
